Measured values: patent US4223137A, “Carbostyril derivatives and process for preparing the same” (Otsuka Pharmaceutical Co., Ltd., priority 1976, dated 1980)
Where “and” joins values, the source holds several entries; their conditions need not be identical. Equal entries are not always repeated. Structures can show the parent of a compound that is named as a salt. Where two headings read alike, the source gives them in different places.

What was measured:
β-adrenoreceptor [1] = experiment: Persistence (duration) of inhibition of histamine-induced bronchospasm, anesthetized dogs; format: in vivo, dog; conditions: FIGURE, i.v. 1 μg/kg, versus Compound (2)
Description: The stimulating activity of the compounds of this invention on β-adrenoreceptor was determined as follows: Male hydrid adult dogs, weighing 10 to 15 kg, were anesthesized with sodium pentobartital administered intravenously at a level of 30 mg/kg of body weight. Each of the anesthesized dogs was secured on its back and a cannula was inserted into the trachea. Artificial respiration was conducted using a device according to the Konzett-Rossler method (Konzett H. & Rossler R., "Versuchsanordnug zu Untersuchungen an der Bronchial Moskolatur", Arch. Exp. Path., […], 195, 71-74, 27-40 (1940). The volume of the air which overflowed at the time of inhalation was measured through a pneumotachometer to determine the bronchial resistance and the values obtained were recorded on a polygraph. […] Sodium pentobartital was infused during the procedure at a dosage level of 4 mg/kg of body weight/hr using an automatic injector in order to inhibit spontaneous respiration and to maintain the anesthetic condition constant over the test period. The persistance time was determined by administering to a subject a test compound in such a dose that a histamine-induced bronchospasm is inhibited completely (100%), in the same manner as described above and observing the persistance of the activity of the test compound with the lapse of time.

β-adrenoreceptor [2] = molecular target: T1, β-adrenoreceptor (Canis lupus familiaris, UniProt P54833); experiment: Inhibition of histamine-induced bronchial resistance increase (bronchospasm), i.v., Konzett-Rossler method, anesthetized dogs; format: in vivo, dog (male hybrid adult dogs); conditions: for Bronchial Resistance (BR) Relative Potency: ED50 compared to isoproterenol as standard compound; for ED50: dog, iv
T1 construct: from tissue; host or cells: airways of anesthetized dogs, in vivo
T1 sequence (P54833 whole entry): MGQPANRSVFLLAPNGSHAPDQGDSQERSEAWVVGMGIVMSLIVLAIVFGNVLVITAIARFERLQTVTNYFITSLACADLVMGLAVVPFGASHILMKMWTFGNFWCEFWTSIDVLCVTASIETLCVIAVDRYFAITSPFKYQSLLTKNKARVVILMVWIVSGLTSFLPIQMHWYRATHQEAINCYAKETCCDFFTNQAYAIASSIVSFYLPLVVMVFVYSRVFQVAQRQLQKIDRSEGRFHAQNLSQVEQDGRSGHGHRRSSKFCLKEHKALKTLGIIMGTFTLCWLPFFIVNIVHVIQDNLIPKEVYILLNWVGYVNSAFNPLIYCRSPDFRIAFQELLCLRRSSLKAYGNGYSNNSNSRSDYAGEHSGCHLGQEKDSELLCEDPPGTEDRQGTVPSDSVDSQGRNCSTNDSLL
Description: (§1) The stimulating activity of the compounds of this invention on β-adrenoreceptor was determined as follows: Male hydrid adult dogs, weighing 10 to 15 kg, were anesthesized with sodium pentobartital administered intravenously at a level of 30 mg/kg of body weight. Each of the anesthesized dogs was secured on its back and a cannula was inserted into the trachea.
(§2) In the above procedure, histamine was employed as a bronchoconstrictor at a dosage level of 10 μg/kg of body weight, and an aqueous solution containing each of the test compounds and controls shown in Table 1 below was then administered to each of the anesthesized dogs through the femoral vein at the various dosage levels as shown in Table 1 below 1 minute before the administration of the histamine. Sodium pentobartital was infused during the procedure at a dosage level of 4 mg/kg of body weight/hr using an automatic injector in order to inhibit spontaneous respiration and to maintain the anesthetic condition constant over the test period.
(§3) ED50 values were calculated using a Dose Response curve. At the same time the pulse was measured through a transducer and the value was recorded on a polygraph.

β2-receptor = experiment: Separation of bronchial resistance effect from heart rate effect (β2 selectivity), anesthetized dogs; format: in vivo, dog (male hybrid adult dogs); conditions: i.v.
Description: The stimulating activity of the compounds of this invention on β-adrenoreceptor was determined as follows: Male hydrid adult dogs, weighing 10 to 15 kg, were anesthesized with sodium pentobartital administered intravenously at a level of 30 mg/kg of body weight. Each of the anesthesized dogs was secured on its back and a cannula was inserted into the trachea. Artificial respiration was conducted using a device according to the Konzett-Rossler method (Konzett H. & Rossler R., "Versuchsanordnug zu Untersuchungen an der Bronchial Moskolatur", Arch. Exp. Path., Pharmack, 195, 71-74, 27-40 (1940). The volume of the air which overflowed at the time of inhalation was measured through a pneumotachometer to determine the bronchial resistance and the values obtained were recorded on a polygraph.
as §2, §3

β-adrenoreceptor [3] = experiment: Heart rate (pulse) increase, i.v., anesthetized dogs; format: in vivo, dog (male hybrid adult dogs); conditions: for Heart Rate (HR) ED25 beats/min, Compound: pulse increase; for Heart Rate (HR) Relative Potency: ED25 compared to isoproterenol as standard compound
Description: as §1, §2, §3

[4] = Acute toxicity by intravenous administration; conditions: rat, in vivo, i.v., male rats (dd strain, 18 to 22 g), fasted 12 hours, read-out: LD50 (50% lethal dose)
Description: Further, the acute toxicity by intravenous administration was determined with respect to the test compounds shown in Table 2 below using 5 to 6 groups each containing 10 male rats (dd strain; body weight: 18 to 22 g) which had been fasted for 12 hours prior to the test. The LD50 (50% lethal dose) results are as follows.

[5] = read-out: Bronchial Resistance (BR) ED50, Compound
[6] = i.v. 1 minute before histamine 10 μg/kg, anesthetized dogs, read-out: Bronchial Resistance (BR) ED50, Compound

SMILES | duration of β-stimulation activity on histamine-induced bronchospasm (β-adrenoreceptor [1]) | Bronchial Resistance (BR) Relative Potency (β-adrenoreceptor [2]) | ED50 (β-adrenoreceptor [2]; [5]) [µg/kg] | Separation Ratio HR(Relative Potency)/BR(Relative Potency) (β2-receptor) | Heart Rate (HR) ED25 beats/min, Compound (β-adrenoreceptor [3]; i.v., anesthetized dogs) [µg/kg] | Heart Rate (HR) Relative Potency (β-adrenoreceptor [3]) | LD50 [4] [µg/kg] | ED50 (β-adrenoreceptor [2]; [6]) [µg/kg] | ED50 (β-adrenoreceptor [2]; read-out: Bronchial Resistance (BR) ED50, Isoproterenol, isoproterenol as standard compound for the compound of the same line, i.v., anesthetized dogs) [µg/kg] | Heart Rate (HR) ED25 beats/min, Isoproterenol (β-adrenoreceptor [3]; isoproterenol as standard compound for the compound of the same line, i.v., anesthetized dogs) | Bronchial Resistance (BR) ED50, Compound (β-adrenoreceptor [2]; i.v. 1 minute before histamine 10 μg/kg, anesthetized dogs) [µg/kg]
CCC(NC(C)C)C(OC(C)=O)c1ccc(OC(C)=O)c2[nH]c(=O)ccc12.Cl (stereo not shown) [(3), 8-acetoxy-5-(1-acetoxy-2-isopropylaminobutyl)carbostyril hydrochloride] | exhibit a long-lasting β-stimulation activity on histamine-induced bronchospasm as compared with that of the comparative compound | 5.85 | 0.82 | 11.0 | 4.5 | 64.4 | 112000 |  |  |  | 
CCNC(CC)C(O)c1ccc(OC(C)=O)c2[nH]c(=O)ccc12.Cl (stereo not shown) [(4), 8-acetoxy-5-(1-hydroxy-2-ethylaminobutyl)carbostyril hydrochloride] | exhibit a long-lasting β-stimulation activity on histamine-induced bronchospasm as compared with that of the comparative compound | 3.81 | 0.61 | 11.8 | 3.6 | 45.0 | 105000 |  |  |  | 
CCNC(CC)C(O)c1ccc(OC(=O)CC(C)C2CCCCC2)c2[nH]c(=O)ccc12.Cl (stereo not shown) [(5), 8-(3-cyclohexylbutyryloxy)-5-(1-hydroxy-2-ethylaminobutyl)carbostyril hydrochloride] |  | 5.15 | 0.67 | 12.7 | 6.5 | 65.4 |  |  |  |  | 
CCC(NC(C)C)C(O)c1ccc(OC(=O)CC(C)(C)C)c2[nH]c(=O)ccc12 (stereo not shown) [(6)] |  | 3.52 |  | 13.1 | 3.2 | 46.1 | 107000 | 0.42 |  |  | 
CCC(NC(C)C)C(O)c1ccc(OC(=O)Cc2ccccc2)c2[nH]c(=O)ccc12.Cl (stereo not shown) [(7), 8-phenylacetoxy-5-(1-hydroxy-2-isopropylaminobutyl)carbostyril hydrochloride] |  |  | 0.17 |  | 1.39 |  |  |  |  |  | 
COc1ccc(CCNCC(OC(=O)C2CC2)c2ccc(OC(=O)C3CC3)c3[nH]c(=O)ccc23)cc1OC (stereo not shown) [(8), 8-cyclopropylcarbonyloxy)-5-[1-cyclopropylcarbonyloxy-2-(3,4-dimethoxyphenethylamino)ethyl]carbostyril hydrochloride] |  | 4.64 |  | 14.8 | 4.81 | 68.7 | 123000 | 0.51 |  |  | 
CCNC(CC)C(O)c1ccc(OC(=O)c2ccc(C)cc2)c2[nH]c(=O)ccc12.Cl (stereo not shown) [(9), 8-(4-methylbenzoyloxy)-5-(1-hydroxy-2-ethylaminobutyl)carbostyril hydrochloride] |  | 1.06 | 0.16 | 14.5 | 1.7 | 15.5 | 132000 |  |  |  | 
CCC(NC(C)C)C(O)c1ccc(OC(=O)C(C)C)c2nc(OC(=O)C(C)C)ccc12.Cl (stereo not shown) [(10), 2,8-diisobutyryloxy-5-(1-hydroxy-2-isopropylaminobutyl)quinoline hydrochloride] | exhibit a long-lasting β-stimulation activity on histamine-induced bronchospasm as compared with that of the comparative compound | 5.94 | 0.95 | 9.5 | 5.6 | 56.4 |  |  |  |  | 
CCC(NCc1ccccc1)C(O)c1ccc(OC(=O)c2ccc(Cl)cc2)c2[nH]c(=O)ccc12.Cl (stereo not shown) [(11), 8-(4-chlorobenzoyloxy)-5-(1-hydroxy-2-benzylaminobutyl)carbostyril hydrochloride] |  | 6.50 | 0.91 | 7.2 | 4.2 | 46.7 |  |  |  |  | 
CCC(NC(C)C)C(OC(=O)c1ccc(C)cc1)c1ccc(OC(=O)c2ccc(C)cc2)c2c1CCC(=O)N2 (stereo not shown) [(12), 8-(4-methylbenzoyloxy)-5-[(1-(4-methylbenzoyloxy)-2-isopropylaminobutyl]-3,4-dihydrocarbostyril hydrochloride] |  | 7.30 |  | 10.3 | 8.3 | 75.5 | 153000 | 0.73 |  |  | 
CCC(NC(C)C)C(OC(=O)C1CCCCC1)c1ccc(OC(=O)c2ccc(C)cc2)c2[nH]c(=O)ccc12.Cl (stereo not shown) [(13), 8-(4-methylbenzoyloxy)-5-(1-cyclohexylcarbonyloxy-2-isopropylaminobutyl)carbostyril hydrochloride] |  | 5.92 | 0.71 | 11.3 | 6.02 | 66.9 | 147000 |  |  |  | 
CC(C)C(=O)Oc1ccc(C(O)C(C)NC(C)(C)C)c2ccc(=O)[nH]c12 (stereo not shown) [(14), 8-isobutyryloxy-5-(1-hydroxy-2-tert-butylaminopropyl)carbostyril] |  | 3.92 |  | 12.3 | 3.86 | 48.3 |  | 0.47 |  |  | 
CCNC(CC)C(O)c1ccc(O)c2[nH]c(=O)ccc12.Cl (stereo not shown) [Compound (2), 8-hydroxy-5-(1-hydroxy-2-ethylaminobutyl)carbostyril hydrochloride, reference compound] |  | 3.47 | 0.66 | 11.5 | 3.6 | 40.0 |  |  |  |  | 
CC(C)NCC(O)c1ccc(O)c(O)c1 (stereo not shown) [Isoproterenol, reference compound] |  |  |  |  |  |  |  |  | 0.19 | 0.07 µg/kg and 0.10 µg/kg | 
CC(C)(C)NCC(O)c1ccc(O)c(CO)c1 (stereo not shown) [Salubutamol (1), Salbutamol, reference compound] |  | 6.1 |  | 7.52 | 2.8 | 45.9 |  |  |  |  | 0.52
